Holding throughout (experiment): inhibition of tumour cell growth, NCI panel, 48 h
Experiment [1] deals with U-251.
In experiment [2] the test system is HL-60.
Experiment [3] concerns SK-OV-3.
Experiment [4] deals with IGROV-1.
For experiment [5], the system named is KM12.
In experiment [6] the test system is SF-295.
For experiment [7], the system named is MOLT-4.
In experiment [8] the test system is MCF7.
Experiment [9] has as its system SNB-19.
The subject of experiment [10] is HT-29.
Experiment [11] has as its system OVCAR-3.
Experiment [12] relates to SF-539.
Experiment [13] relates to OVCAR-5.
Experiment [14] relates to DMS-114.
Experiment [15] concerns OVCAR-8.
Experiment [16] deals with UACC-62.
The subject of experiment [17] is SF-268.

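How tested: cells in 96-well plates exposed to compound for 48 hours at five concentrations. Abbreviation: GI50, concentration required for 50% inhibition of growth.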 The source made the active and inactive calls. No stated cut-off is given here; in the data, active = GI50 up to about 1.1 µM and inactive = higher.

On to `CCC1CN2CCC1CC2` (stereo not drawn), for which the GI50 in experiment [1], in [2], in experiment [3], in experiment [4], in experiment [5] and in [6] was > 100 µM (inactive) each time. Also, the GI50 in experiment [7], in experiment [8], in experiment [9], in [10], in [11] and in experiment [12] was > 100 µM (inactive) each time. For the same compound, the GI50 in experiment [13], in experiment [14], in experiment [15], in experiment [16] and in experiment [17] was > 100 µM (inactive) in each case.

Take `C[C@H]1[C@@H]2C[C@@H]3O[C@@]34[C@H]3CCC5Cc6nc7c(nc6C[C@@]5(C)[C@]3(O)CC(=O)[C@@]24CO[C@]12OC(C)(C)C[C@@H]2O)CC1CC[C@@H]2C3=C[C@H]4O[C@@]5(OC(C)(CO)C[C@@H]5O)[C@H](C)[C@@]4(O)[C@]3(C)[C@@H](O)CC2[C@]1(C)C7` (stereo partly drawn): the GI50 in [1] is 0.00511 µM (active); in experiment [2] it was 0.00361 µM (active); in [3] it was 0.0168 µM (active); in [4], 0.0291 µM (active); in [5], 0.0706 µM (active); in experiment [6] it was 0.00215 µM (active). Also, the GI50 in experiment [8] was 0.0345 µM (active); in experiment [10], 0.014 µM (active); in experiment [11] it was 0.7 µM (active); in experiment [12], 0.0179 µM (active); in experiment [13], 0.0343 µM (active); in experiment [14] it was 0.0119 µM (active). In addition, the GI50 is 3.02 µM (inactive) in experiment [15], 0.0175 µM (active) in [16] and 0.0181 µM (active) in [17].

As for `COC(=O)[C@@H]1c2cc3c(c(O)c2[C@@H](OC)C[C@@]1(C)O)C(=O)c1c(O)cc2c(c1C3=O)OC1O[C@@]2(C)[C@H](O)[C@@H](N(C)C)[C@@H]1O`, the GI50 in experiment [1] was 0.307 µM (active); in [2] it was 0.142 µM (active); in experiment [3], 0.522 µM (active); in [4], 0.291 µM (active); in [5] it was 0.379 µM (active); in [6], 0.213 µM (active). Also, the GI50 was 0.143 µM (active) in experiment [7]; 2.72 µM (inactive) in [8]; 0.337 µM (active) in experiment [9]; 0.355 µM (active) in experiment [10]; 0.361 µM (active) in experiment [11]; 2.69 µM (inactive) in [12]. Besides, the GI50 is 0.508 µM (active) in experiment [13]; 0.217 µM (active) in experiment [14]; 0.234 µM (active) in experiment [15]; 0.223 µM (active) in experiment [16]; 0.528 µM (active) in experiment [17].

Consider `Cn1c2ccccc2c(=O)c2c(O)cc3c(c21)C=CC(C)(C)O3` [NORACRONYCINE], for which the GI50 in experiment [1] is > 25 µM (inactive); in experiment [2], > 11.1 µM (inactive); in experiment [3] it was > 25 µM (inactive); in [4], > 25 µM (inactive); in [5] it was > 25 µM (inactive); in experiment [6], > 25 µM (inactive). Further, the GI50 was 6.28 µM (inactive) in [7]; > 25 µM (inactive) in [8]; 9.31 µM (inactive) in experiment [9]; > 25 µM (inactive) in [10]; > 25 µM (inactive) in [11]; > 25 µM (inactive) in [12]. The GI50 is > 25 µM (inactive) in experiment [13]; > 25 µM (inactive) in [14]; 2.5 µM (inactive) in [15]; > 25 µM (inactive) in experiment [16]; > 25 µM (inactive) in experiment [17].

`O=C(O)CCCCCCCCC(=O)O` [SEBACIC ACID]: the GI50 in experiment [1] was > 79.3 µM (inactive); in experiment [2] it was 316 µM (inactive); in experiment [3], 50 µM (inactive); in [4] it was > 500 µM (inactive); in experiment [5], > 500 µM (inactive); in experiment [6], 79.3 µM (inactive). The GI50 in experiment [7] is > 500 µM (inactive); in [8] it was > 377 µM (inactive); in experiment [9] it was 108 µM (inactive); in experiment [10], > 23.2 µM (inactive); in experiment [11], 79.3 µM (inactive); in experiment [12], > 79.3 µM (inactive). For the same compound, the GI50 in experiment [13] is > 500 µM (inactive); in experiment [14], 50 µM (inactive); in experiment [15], 108 µM (inactive); in experiment [16], > 79.3 µM (inactive); in [17] it was > 500 µM (inactive).

The values are drawn from ChEMBL document CHEMBL1201862, “PubChem BioAssay data set” (2004).
